Assay results from article PMC12915131, “Balanced Expression of the Diiron Oxygenase BioE Is Essential for Biotin Homeostasis in Elizabethkingia meningoseptica” (Advanced Science, 2025).

How the values were obtained:
EmBioE = biological target: T1, EmBioE; assay: SPR, confirmed by MST; HPLC shows conversion to pimeloyl-CoA; format: binding, Elizabethkingia meningoseptica
T1 construct: gene bioE; 6x His-tagged EmBioE

EmBioE (BioE) = biological target: T2, EmBioE (BioE); assay: SPR (Biacore, CM5 chip); supported by urea-PAGE inhibition of C18-ACP cleavage (Ki […]); format: binding, Elizabethkingia meningoseptica
T2 construct: 6x His-tagged EmBioE

Row | Compound | Kd (EmBioE) [µM] | Kd (EmBioE (BioE)) [µM]
1 | CCCCCCCCCCCCCCCCCC(=O)SCCNC(=O)CCNC(=O)[C@H](O)C(C)(C)COP(=O)(O)OP(=O)(O)OC[C@H]1O[C@@H](n2cnc3c(N)ncnc32)[C@H](O)[C@@H]1OP(=O)(O)O [C18-CoA, stearoyl-CoA] | ~20.1 | –
2 | C=CCn1c(SCC(=O)Nc2scc(-c3ccc(C)cc3)c2C(=O)OC)nnc1-c1ccc(N(C)C)cc1 [compound 466982, 466982] | – | ~14.6
